Paper PMC4368042 (ACS Chemical Neuroscience, 2015)
“Also recorded” adds a separate entry of the source.

How the values were obtained:
hM3Dq = hM3Dq (Homo sapiens, UniProt P20309, A239G/Y149C); assay: cell-based; format: cell-based; conditions: for Emax: read-out: hM3Dq Emax (relative to CNO); for hM3Dq potency decrease on replacing methyl with n-propyl: 4d vs 4a, 5d vs 5a
[1] = target: hM3 (native human M3 receptor) (Homo sapiens, UniProt P20309); assay: cell-based; format: cell-based; conditions: for Emax: read-out: hM3 Emax (relative to acetylcholine)
5HT2C = target: T1, 5HT2C (Homo sapiens, UniProt P28335); assay: 5HT2C radioligand binding assay; conditions: for Ki: Ki 5HT2C, radioligand binding
T1 sequence (P28335 33-458): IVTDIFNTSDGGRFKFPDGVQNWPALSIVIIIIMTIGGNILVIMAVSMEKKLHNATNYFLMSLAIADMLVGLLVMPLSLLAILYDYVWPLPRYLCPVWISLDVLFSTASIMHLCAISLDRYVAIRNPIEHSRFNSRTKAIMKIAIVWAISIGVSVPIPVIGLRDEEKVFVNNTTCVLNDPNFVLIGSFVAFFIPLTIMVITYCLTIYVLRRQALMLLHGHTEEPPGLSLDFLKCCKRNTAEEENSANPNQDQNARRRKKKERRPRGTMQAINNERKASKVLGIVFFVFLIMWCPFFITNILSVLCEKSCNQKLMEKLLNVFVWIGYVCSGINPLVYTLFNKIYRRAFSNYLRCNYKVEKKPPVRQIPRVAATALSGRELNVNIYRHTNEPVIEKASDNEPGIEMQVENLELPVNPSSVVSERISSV

H1 = H1 (Homo sapiens, UniProt P35367); assay: biochemical; format: binding; conditions: for Ki: Ki H1, radioligand binding
α1A = target: T2, α1A (Homo sapiens, UniProt P35348); assay: α1A radioligand binding assay; conditions: for Ki: Ki α1A, radioligand binding
T2 sequence (P35348 1-466): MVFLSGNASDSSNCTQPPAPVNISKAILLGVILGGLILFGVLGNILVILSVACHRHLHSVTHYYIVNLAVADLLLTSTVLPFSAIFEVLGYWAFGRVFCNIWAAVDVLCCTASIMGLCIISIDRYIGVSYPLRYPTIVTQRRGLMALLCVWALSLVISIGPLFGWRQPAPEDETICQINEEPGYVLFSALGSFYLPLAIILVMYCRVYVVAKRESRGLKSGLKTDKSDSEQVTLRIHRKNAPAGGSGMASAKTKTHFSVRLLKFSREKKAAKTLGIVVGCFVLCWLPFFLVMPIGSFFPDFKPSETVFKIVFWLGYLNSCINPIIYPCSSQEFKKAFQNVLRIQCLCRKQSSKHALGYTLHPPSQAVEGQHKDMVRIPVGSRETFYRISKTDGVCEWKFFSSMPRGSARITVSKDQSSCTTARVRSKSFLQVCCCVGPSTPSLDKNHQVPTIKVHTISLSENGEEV

5HT2A = 5HT2A (Homo sapiens, UniProt P28223); assay: biochemical; format: binding; conditions: for Ki: Ki 5HT2A, radioligand binding
Sequence of 5HT2A (P28223 whole entry, species assumed): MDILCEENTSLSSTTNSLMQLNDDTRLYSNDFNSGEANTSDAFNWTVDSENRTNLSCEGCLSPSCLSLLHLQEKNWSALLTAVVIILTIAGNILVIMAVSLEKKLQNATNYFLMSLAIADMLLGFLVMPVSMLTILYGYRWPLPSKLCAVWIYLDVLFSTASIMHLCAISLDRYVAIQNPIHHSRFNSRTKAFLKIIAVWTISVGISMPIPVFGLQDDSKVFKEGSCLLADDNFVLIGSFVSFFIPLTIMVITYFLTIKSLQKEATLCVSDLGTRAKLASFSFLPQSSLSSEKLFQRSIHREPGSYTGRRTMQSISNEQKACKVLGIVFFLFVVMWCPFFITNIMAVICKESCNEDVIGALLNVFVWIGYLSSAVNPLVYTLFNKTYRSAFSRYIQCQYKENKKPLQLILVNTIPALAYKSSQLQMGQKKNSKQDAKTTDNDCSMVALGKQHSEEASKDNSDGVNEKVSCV

Sequence of hM3 (native human M3 receptor) (P20309 whole entry): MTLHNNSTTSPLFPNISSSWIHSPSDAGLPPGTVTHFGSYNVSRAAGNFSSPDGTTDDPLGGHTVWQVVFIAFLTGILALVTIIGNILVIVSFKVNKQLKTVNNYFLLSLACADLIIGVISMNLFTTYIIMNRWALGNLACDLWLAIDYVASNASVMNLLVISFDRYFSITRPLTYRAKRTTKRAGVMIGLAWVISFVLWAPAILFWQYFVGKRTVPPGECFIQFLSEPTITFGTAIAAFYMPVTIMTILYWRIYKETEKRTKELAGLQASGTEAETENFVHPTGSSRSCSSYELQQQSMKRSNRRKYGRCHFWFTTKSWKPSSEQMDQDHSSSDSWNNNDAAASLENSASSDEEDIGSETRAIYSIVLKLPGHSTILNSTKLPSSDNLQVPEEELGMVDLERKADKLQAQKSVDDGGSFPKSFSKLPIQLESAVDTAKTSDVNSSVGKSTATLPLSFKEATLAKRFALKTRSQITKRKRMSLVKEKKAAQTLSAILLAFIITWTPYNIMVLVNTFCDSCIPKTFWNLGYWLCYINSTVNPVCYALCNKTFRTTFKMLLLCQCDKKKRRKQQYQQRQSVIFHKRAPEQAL
Sequence of hM3Dq (P20309 whole entry Y149C/A239G): as the sequence (P20309 whole entry) above, with Y149C, A239G counted along it
Sequence of H1 (P35367 whole entry): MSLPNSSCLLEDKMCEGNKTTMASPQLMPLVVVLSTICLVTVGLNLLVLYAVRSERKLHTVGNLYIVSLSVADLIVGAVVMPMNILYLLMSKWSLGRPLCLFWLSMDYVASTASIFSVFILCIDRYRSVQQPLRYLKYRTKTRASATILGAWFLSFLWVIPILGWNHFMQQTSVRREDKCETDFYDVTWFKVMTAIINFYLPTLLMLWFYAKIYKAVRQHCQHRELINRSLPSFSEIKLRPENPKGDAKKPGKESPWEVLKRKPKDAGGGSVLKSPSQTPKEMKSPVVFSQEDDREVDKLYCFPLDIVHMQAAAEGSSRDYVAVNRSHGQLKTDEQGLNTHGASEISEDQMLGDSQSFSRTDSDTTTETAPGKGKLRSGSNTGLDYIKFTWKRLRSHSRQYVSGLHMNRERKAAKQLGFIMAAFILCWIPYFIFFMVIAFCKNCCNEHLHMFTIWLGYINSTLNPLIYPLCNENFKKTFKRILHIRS

SMILES | EC50 (hM3Dq) | agonist activity for hM3Dq (in words) (hM3Dq) | EC50 [1] | agonist activity for hM3 (in words) [1] | Emax (hM3Dq) | further results
O=C1CN(C2=Nc3cc(Cl)ccc3Nc3ccccc32)CCN1 [Compound 7, 4-(8-Chloro-5H-dibenzo[b,e][1,4]diazepin-11-yl)piperazin-2-one] | > 30000 nM | did not display any agonist activity | > 30000 nM | did not activate |  | 
CCN1CCN(C2=Nc3ccccc3Nc3ccccc32)CC1 [Compound 22, 11-(4-Ethylpiperazin-1-yl)-5H-dibenzo[b,e][1,4]diazepine] |  |  |  | did not exhibit any agonist activity | 81% | 
C[N+]1(C)CCN(C2=Nc3cc(Cl)ccc3Nc3ccccc32)CC1.[I-] [Compound 6, 4-(8-Chloro-5H-dibenzo[b,e][1,4]diazepin-11-yl)-1,1-dimethylpiperazin-1-ium iodide] | 0.069 nM |  | 9.5 nM |  | 100% | fold more potent than compound 4a (clozapine) at hM3Dq (hM3Dq): about 15 fold; selectivity for hM3Dq over hM3 [1]: > 100 fold; Emax [1]: 92%
CN1CCN(C2=Nc3ccccc3Cc3ccccc32)CC1 [perlapine, reference compound] |  |  |  |  |  | selectivity for hM3Dq over hM3 [1]: > 10 000 fold
O=C1NC(=O)C2(CCN(C3=Nc4cc(Cl)ccc4Nc4ccccc43)CC2)N1 [Compound 9, 8-(8-Chloro-5H-dibenzo[b,e][1,4]diazepin-11-yl)-1,3,8-triazaspiro[4.5]decane-2,4-dione] | > 30000 nM | did not activate | > 30000 nM | did not activate |  | 
CC(=O)N1CCN(C2=Nc3cc(Cl)ccc3Nc3ccccc32)CC1 [Compound 12, 1-(4-(8-Chloro-5H-dibenzo[b,e][1,4]diazepin-11-yl)piperazin-1-yl)ethanone] | > 30000 nM | did not display any agonist activity | > 30000 nM | did not activate |  | 
CC(C)N1CCN(C2=Nc3cc(Cl)ccc3Nc3ccccc32)CC1 [Compound 4c, 8-Chloro-11-(4-isopropylpiperazin-1-yl)-5H-dibenzo[b,e][1,4]diazepine] | 13 nM |  | > 30000 nM |  | 45% | Ki (5HT2C): 17 nM; Ki (H1): 4.6 nM; Ki (α1A): 37 nM
NC1(C(=O)O)CCN(C2=Nc3cc(Cl)ccc3Nc3ccccc32)CC1 [Compound 10, 4-Amino-1-(8-chloro-5H-dibenzo[b,e][1,4]diazepin-11-yl)piperidine-4-carboxylic acid] | > 30000 nM | did not activate | > 30000 nM | did not activate |  | 
CCCN1CCN(C2=Nc3cc(Cl)ccc3Nc3ccccc32)CC1 [Compound 4d, 8-Chloro-11-(4-propylpiperazin-1-yl)-5H-dibenzo[b,e][1,4]diazepine] | 71 nM |  | > 30000 nM |  | 50% | hM3Dq potency decrease on replacing methyl with n-propyl (hM3Dq): approximately 70 fold
CCC[N+]1([O-])CCN(C2=Nc3cc(Cl)ccc3Nc3ccccc32)CC1 [Compound 5d, 4-(8-Chloro-5H-dibenzo[b,e][1,4]diazepin-11-yl)-1-propylpiperazine N-oxide] | 740 nM |  | > 30000 nM |  | 79% | hM3Dq potency decrease on replacing methyl with n-propyl (hM3Dq): ~100 fold
CS(=O)(=O)N1CCN(C2=Nc3cc(Cl)ccc3Nc3ccccc32)CC1 [Compound 14, 8-Chloro-11-(4-(methylsulfonyl)piperazin-1-yl)-5H-dibenzo[b,e][1,4]diazepine] | > 30000 nM | did not display any agonist activity | > 30000 nM | did not activate |  | 
CC[N+]1([O-])CCN(C2=Nc3cc(Cl)ccc3Nc3ccccc32)CC1 [Compound 5b, 4-(8-Chloro-5H-dibenzo[b,e][1,4]diazepin-11-yl)-1-ethylpiperazine N-oxide] | 19 nM |  | > 30000 nM |  | 50% | Ki (5HT2A): 1900 nM; Ki (5HT2C): 5100 nM; selectivity for hM3Dq over H1 (H1): about 8 fold; Ki (H1): 160 nM; Ki (α1A): > 1000 nM
CC[N+]1([O-])CCN(C2=Nc3ccccc3Nc3ccccc32)CC1 [Compound 23, 4-(5H-Dibenzo[b,e][1,4]diazepin-11-yl)-1-ethylpiperazine N-oxide] | 220 nM |  | > 30000 nM | did not exhibit any agonist activity | 59% | fold less potent for hM3Dq than compound 5b (hM3Dq): about 10 fold
CC(=O)OCC[N+](C)(C)C [ACh, acetylcholine, reference compound] |  | does not activate |  | potent hM3 agonist |  | 
c1ccc2c(c1)N=C(N1CCNCC1)c1ccccc1N2 [Compound 21, 11-(Piperazin-1-yl)-5H-dibenzo[b,e][1,4]diazepine] | 1.7 nM |  |  | do not activate; also recorded: inactive | 100% | selectivity for hM3Dq over 5HT2A (5HT2A): 40 fold; Ki (5HT2A): 66 nM; selectivity for hM3Dq over 5HT2C (5HT2C): 100 fold; Ki (5HT2C): 170 nM; Emax [1]: ~20%; selectivity for hM3Dq over H1 (H1): 3.5 fold; Ki (H1): 6 nM; selectivity for hM3Dq over α1A (α1A): 165 fold; Ki (α1A): 280 nM
CC(C)[N+]1([O-])CCN(C2=Nc3cc(Cl)ccc3Nc3ccccc32)CC1 [Compound 5c, 4-(8-Chloro-5H-dibenzo[b,e][1,4]diazepin-11-yl)-1-isopropylpiperazine N-oxide] | 190 nM |  | > 30000 nM |  | 45% | Ki (5HT2A): 5200 nM; Ki (5HT2C): 6700 nM; Ki (H1): 6200 nM; selectivity for hM3Dq over α1A (α1A): about 2 fold; Ki (α1A): 320 nM
